The source of these data is patent US9957254B2, “Cyclohexen-1-yl-pyridin-2-yl-1h-pyrazole-4-carboxylic acid derivatives and the use thereof as soluble guanylate cyclase activators” (Novartis AG, priority 2014, dated 2018).

Some results are limits rather than exact numbers.

The test has as its target T1, soluble guanylate cyclase (Homo sapiens, UniProt Q02153).
T1 construct: expressed in transfected cells
As to the kind of experiment: CHO cellular assay (cGMP production, Cisbio cGMP HTRF). To be noted: CHO K1 cells overexpressing human GUCYA3/GUCYB3 (clone 8E10), 1 mM IBMX, 20 uM ODQ, 1 h room temperature, listed 0.5 nM means actual EC50 ≤0.5 nM (quantification limit). It is filed as cell-based. The text has this: Chinese hamster ovary (CHO) cells overexpressing soluble guanylate cyclase were generated to test the effect of sGC activators in a cellular context. Human cDNAs for GUCYA3 (RefSeq: NM_000856.3) and GUCYB3 (RefSeq: NM_000857.1) were amplified by PCR from a HUVEC (Human Umbilical Vein Endothelial Cells) cDNA library and cloned into mammalian expression vectors. CHO K1 cells (ATCC CCL-61) were transfected using Lipofectamine 2000 following manufacturer's instructions and stably expressing clones were identified by antibiotic selection. CHO GUCY clone 8E10 was used for subsequent experiments.
Cells were seeded at a density of 3000 cells/well in white 384-well proxyplates (Perkin Elmer) and incubated overnight, then the medium was removed and cells were washed with assay buffer (HBSS, 0.1% BSA, 1 mM IBMX, 20 uM ODQ). sGC activators were serially diluted in DMSO, then diluted in assay buffer prior to adding to cells (10 ul/well, final DMSO concentration 0.5%). Cells were incubated with compounds for 1 h room temperature, then assayed for cGMP production using Cisbio cGMP HTRF kit (62GM2PEC) according to manufacturer's instructions.
The EC50s are calculated based on the amount of cGMP interpolated from the standard curve, using a 4-parameter sigmoidal dose-response.
Compounds of invention are active on sGC activation. Data on Table 1 collected using the assay of Biological Example 1. The minimum EC50 quantification limit of the assay is 0.5 nM, therefore any compound listed as having an EC50 value of 0.5 nM has a actual EC50 of ≤0.5 nM.

T1 sequence (Q02108 whole entry partner): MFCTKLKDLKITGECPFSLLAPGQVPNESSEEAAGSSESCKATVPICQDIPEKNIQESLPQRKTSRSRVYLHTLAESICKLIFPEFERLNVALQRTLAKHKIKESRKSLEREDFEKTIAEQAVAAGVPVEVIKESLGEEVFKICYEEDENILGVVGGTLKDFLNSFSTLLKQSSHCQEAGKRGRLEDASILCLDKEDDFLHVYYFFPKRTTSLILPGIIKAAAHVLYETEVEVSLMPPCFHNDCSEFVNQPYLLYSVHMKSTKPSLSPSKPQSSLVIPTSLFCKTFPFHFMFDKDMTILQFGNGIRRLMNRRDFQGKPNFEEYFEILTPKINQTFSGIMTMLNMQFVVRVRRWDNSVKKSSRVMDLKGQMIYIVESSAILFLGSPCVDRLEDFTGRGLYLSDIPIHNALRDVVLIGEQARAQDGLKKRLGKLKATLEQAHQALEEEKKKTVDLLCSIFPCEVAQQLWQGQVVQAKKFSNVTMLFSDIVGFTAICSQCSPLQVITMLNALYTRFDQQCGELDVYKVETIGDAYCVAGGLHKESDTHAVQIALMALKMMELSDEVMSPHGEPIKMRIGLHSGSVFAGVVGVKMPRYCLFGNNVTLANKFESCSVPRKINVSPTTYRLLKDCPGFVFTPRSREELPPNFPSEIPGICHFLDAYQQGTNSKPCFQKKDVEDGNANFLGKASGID
T1 sequence (Q02153 whole entry): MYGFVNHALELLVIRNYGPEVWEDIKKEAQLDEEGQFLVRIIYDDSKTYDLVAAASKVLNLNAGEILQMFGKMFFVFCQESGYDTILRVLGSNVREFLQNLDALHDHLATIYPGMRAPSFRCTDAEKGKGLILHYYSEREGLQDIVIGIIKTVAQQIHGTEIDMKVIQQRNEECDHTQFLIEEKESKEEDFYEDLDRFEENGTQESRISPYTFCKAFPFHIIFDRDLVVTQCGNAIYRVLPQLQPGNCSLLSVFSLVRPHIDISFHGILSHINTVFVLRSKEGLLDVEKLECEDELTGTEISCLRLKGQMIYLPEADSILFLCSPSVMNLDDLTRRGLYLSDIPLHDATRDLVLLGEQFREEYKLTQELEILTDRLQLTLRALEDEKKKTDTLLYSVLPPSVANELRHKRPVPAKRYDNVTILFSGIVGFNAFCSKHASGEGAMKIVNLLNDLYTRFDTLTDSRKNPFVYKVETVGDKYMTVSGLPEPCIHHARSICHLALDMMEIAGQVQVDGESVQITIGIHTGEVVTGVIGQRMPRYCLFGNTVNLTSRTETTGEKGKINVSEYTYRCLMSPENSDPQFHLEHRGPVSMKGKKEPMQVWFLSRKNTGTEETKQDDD

As a reminder, the EC50 is the midpoint of the concentration-response curve. `Cc1cc(C2CCN(C(=O)C3CC3)CC2)ccc1OCC1=C(c2cccc(-n3ncc(C(=O)O)c3C(F)(F)F)c2)CC(C)CC1` (racemic) [Example 28, (±)-1-(6′-((4-(1-(Cyclopropanecarbonyl)piperidin-4-yl)-2-methylphenoxy)methyl)-3′-methyl-2′,3′,4′,5′-tetrahydro-[1,1-biphenyl]-3-yl)-5-(trifluoromethyl)-1H-pyrazole-4-carboxylic acid] came in with an EC50 of 22 nM.

Molecule `CC1CCCC(c2cccc(-n3ncc(C(=O)O)c3C(F)(F)F)n2)=C1COc1ccc2c(c1)CCN(Cc1ccccn1)C2` (racemic) [Example 29-1, (±)-1-(6-(3-Methyl-2-(((2-(pyridin-2-ylmethyl)-1,2,3,4-tetrahydroisoquinolin-6-yl)oxy)methyl)cyclohex-1-en-1-yl)pyridin-2-yl)-5-(trifluoromethyl)-1H-pyrazole-4-carboxylic acid] registered an EC50 of 3.9 nM. Against the preceding molecule, the EC50 is about 5.6-fold lower.

Regarding `O=C(O)c1cnn(-c2cccc(C3=C(COc4ccc([C@H]5CCN(C(=O)C6CC6)C[C@@H]5O)cc4)CCCC3)n2)c1C(F)(F)F` (racemic) [Example 29-2, (±)-1-(6-(2-((4-((3,4-trans)-1-(cyclopropanecarbonyl)-3-hydroxypiperidin-4-yl)phenoxy)methyl)cyclohex-1-en-1-yl)pyridin-2-yl)-5-(trifluoromethyl)-1H-pyrazole-4-carboxylic acid], the EC50 stood at 420 nM.

In turn, `Cc1cc(C2CCN(C(=O)C3CC3)CC2)ccc1OCC1=C(c2cccc(-n3ncc(C(=O)O)c3C(F)(F)F)n2)CC(C)CC1` (single isomer, unassigned; (+)) [Example 12 (+), (+)-1-(6-(2-((4-(1-(cyclopropanecarbonyl)piperidin-4-yl)-2-methylphenoxy)methyl)-5-methylcyclohex-1-en-1-yl)pyridin-2-yl)-5-(trifluoromethyl)-1H-pyrazole-4-carboxylic acid] displayed a half-maximal effective concentration (EC50) not above 0.5 nM.

Regarding `CCc1cc(OCC2=C(c3cccc(-n4ncc(C(=O)O)c4C(F)(F)F)n3)CCCC2C)ccc1C1CCN(C(=O)C2CC2)CC1` (single isomer, unassigned; (+)) [Example 13a, (+)-1-(6-(2-((4-(1-(Cyclopropanecarbonyl)piperidin-4-yl)-3-ethylphenoxy)methyl)-3-methylcyclohex-1-en-1-yl)pyridin-2-yl)-5-(trifluoromethyl)-1H-pyrazole-4-carboxylic acid], the 50% effective concentration (EC50) amounted to 1 nM.

On to `Cc1cc(C2CCN(C(=O)C3CC3)CC2)ccc1OCC1=C(c2cccc(-n3ncc(C(=O)O)c3C(F)(F)F)n2)CCCC1C` (single isomer, unassigned; (+)) [Example 15a, (+)-1-(6-(2-((4-(1-(cyclopropanecarbonyl)piperidin-4-yl)-2-methylphenoxy)methyl)-3-methylcyclohex-1-en-1-yl)pyridin-2-yl)-5-(trifluoromethyl)-1H-pyrazole-4-carboxylic acid], for which the EC50 is not above 0.5 nM.

`CCc1cc(OCC2=C(c3cccc(-n4ncc(C(=O)O)c4C)n3)CCCC2C)ccc1C1CCN(C(=O)C2CC2)CC1` (single isomer, unassigned; (+)) [Example 16a, (+)-1-(6-(2-((4-(1-(Cyclopropanecarbonyl)piperidin-4-yl)-3-ethylphenoxy)methyl)-3-methylcyclohex-1-en-1-yl)pyridin-2-yl)-5-methyl-1H-pyrazole-4-carboxylic acid]: the 50% effective concentration (EC50) is not above 0.5 nM.

`CCc1cc(OCC2=C(c3cccc(-n4ncc(C(=O)O)c4CC)n3)CCCC2C)ccc1C1CCN(C(=O)C2CC2)CC1` (single isomer, unassigned; (+)) [Example 17a, (+)-1-(6-(2-((4-(1-(Cyclopropanecarbonyl)piperidin-4-yl)-3-ethylphenoxy)methyl)-3-methylcyclohex-1-en-1-yl)pyridin-2-yl)-5-ethyl-1H-pyrazole-4-carboxylic acid] came in with an EC50 not above 0.5 nM.

Consider `CCc1cc(OCC2=C(c3cccc(-n4ncc(C(=O)O)c4C(F)F)n3)CCCC2C)ccc1C1CCN(C(=O)C2CC2)CC1` (single isomer, unassigned; (+)) [Example 20(b) (+), (+)-1-(6-(2-((4-(1-(cyclopropanecarbonyl)piperidin-4-yl)-3-ethylphenoxy)methyl)-3-methylcyclohex-1-en-1-yl)pyridin-2-yl)-5-(difluoromethyl)-1H-pyrazole-4-carboxylic acid], for which the concentration for a half-maximal effect (EC50) was not above 0.5 nM.

In turn, `CCc1cc(OCC2=C(c3cccc(-n4ncc(C(=O)O)c4C(F)(F)F)n3)CCC2C)ccc1C1CCN(C(=O)C2CC2)CC1` (single isomer, unassigned; (+)) [Example 22(b) (+), (+)-1-(6-(2-((4-(1-(cyclopropanecarbonyl)piperidin-4-yl)-3-ethylphenoxy)methyl)-3-methylcyclopent-1-en-1-yl)pyridin-2-yl)-5-(trifluoromethyl)-1H-pyrazole-4-carboxylic acid] registered an EC50 of 1 nM.

`Cc1cc(C2CCN(C(=O)C3CC3)CC2)ccc1OCC1=C(c2cccc(-n3ncc(C(=O)O)c3C(F)(F)F)n2)CC(C)CC1` (single isomer, unassigned; (-)) [Example 12 (−), (−)-1-(6-(2-((4-(1-(cyclopropanecarbonyl)piperidin-4-yl)-2-methylphenoxy)methyl)-5-methylcyclohex-1-en-1-yl)pyridin-2-yl)-5-(trifluoromethyl)-1H-pyrazole-4-carboxylic acid]: the EC50 is not above 0.5 nM.

In the case of `CCc1cc(OCC2=C(c3cccc(-n4ncc(C(=O)O)c4C(F)(F)F)n3)CCCC2C)ccc1C1CCN(C(=O)C2CC2)CC1` (single isomer, unassigned; (-)) [Example 13b, (−)-1-(6-(2-((4-(1-(Cyclopropanecarbonyl)piperidin-4-yl)-3-ethylphenoxy)methyl)-3-methylcyclohex-1-en-1-yl)pyridin-2-yl)-5-(trifluoromethyl)-1H-pyrazole-4-carboxylic acid], the EC50 worked out at 9 nM.

`Cc1cc(C2CCN(C(=O)C3CC3)CC2)ccc1OCC1=C(c2cccc(-n3ncc(C(=O)O)c3C(F)(F)F)n2)CCCC1C` (single isomer, unassigned; (-)) [Example 15b, (−)-1-(6-(2-((4-(1-(Cyclopropanecarbonyl)piperidin-4-yl)-2-methylphenoxy)methyl)-3-methylcyclohex-1-en-1-yl)pyridin-2-yl)-5-(trifluoromethyl)-1H-pyrazole-4-carboxylic acid] registered a half-maximal effective concentration (EC50) of 1 nM. This EC50 lies about 9-fold lower than the previous one.

As for `CCc1cc(OCC2=C(c3cccc(-n4ncc(C(=O)O)c4C)n3)CCCC2C)ccc1C1CCN(C(=O)C2CC2)CC1` (single isomer, unassigned; (-)) [Example 16b, (−)-1-(6-(2-((4-(1-(Cyclopropanecarbonyl)piperidin-4-yl)-3-ethylphenoxy)methyl)-3-methylcyclohex-1-en-1-yl)pyridin-2-yl)-5-methyl-1H-pyrazole-4-carboxylic acid], the response was half-maximal at 3 nM (EC50).

`CCc1cc(OCC2=C(c3cccc(-n4ncc(C(=O)O)c4CC)n3)CCCC2C)ccc1C1CCN(C(=O)C2CC2)CC1` (single isomer, unassigned; (-)) [Example 17b, (−)-1-(6-(2-((4-(1-(Cyclopropanecarbonyl)piperidin-4-yl)-3-ethylphenoxy)methyl)-3-methylcyclohex-1-en-1-yl)pyridin-2-yl)-5-ethyl-1H-pyrazole-4-carboxylic acid]: the response was half-maximal at 1.4 nM (EC50).
